Tests used:
Type in all cases: in vivo
Abutilon theophrasti [1] = assay: Herbicidal pre-emergence action (greenhouse pots), ABUTH; details: 1280 g/ha, visual scoring after about 3 weeks vs untreated controls
Text: (§1) In the examples and tables below, the following abbreviations are used: • Undesired Plants/Weeds: • ABUTH: Abutilon theophrasti • AGSTE: Agrostis tenuis • AMARE Amaranthus retroflexus • ECHCG: Echinochloa crus-galli • LOLRI: Lolium rigidum • MATIN: Matricaria inodora • POAAN: Poa annua • SETVI: Setaria viridis • STEME: Stellaria media A. Herbicidal Early Post-Emergence Action Seeds of mono- and dicotyledonous weed plants were placed in plastic pots in sandy loam soil (doubly sown with one species each of mono- or dicotyledonous weed plants per pot) and covered with soil. The compounds of the invention, formulated in the form of wettable powders (WP) or as emulsion concentrates (EC), were then applied onto the surface of the covering soil as aqueous suspension or emulsion with addition of 0.5% additive at a water application rate of 600 liters per hectare (converted). After the treatment, the pots were placed in a greenhouse and kept under good growth conditions for the test plants. After about 3 weeks, the effect of the preparations was scored visually in comparison with untreated controls as percentages. For example, 100% activity=the plants have died, 0% activity=like untreated control plants. Tables C1-C8 below show the effects of selected compounds of the general formula (I) according to Table 1 above on various harmful plants and an application rate corresponding to 1280 g/ha, which were obtained by the experimental procedure mentioned above.

Stellaria media [2] = assay: Herbicidal post-emergence action (greenhouse pots), STEME; details: 1280 g/ha, visual rating about 3 weeks after treatment vs untreated controls
Text: (§2) In the examples and tables below, the following abbreviations are used: • Undesired Plants/Weeds: • ABUTH: Abutilon theophrasti • AGSTE: Agrostis tenuis • AMARE Amaranthus retroflexus • ECHCG: Echinochloa crus-galli • LOLRI: Lolium rigidum • MATIN: Matricaria inodora • POAAN: Poa annua • SETVI: Setaria viridis • STEME: Stellaria media A. Herbicidal Early Post-Emergence Action Seeds of mono- and dicotyledonous weed plants were placed in plastic pots in sandy loam soil (doubly sown with in each case one species of mono- or dicotyledonous weed plants per pot), covered with soil and cultivated in a greenhouse under controlled growth conditions. 2 to 3 weeks after sowing, the test plants were treated at the one-leaf stage. The compounds of the invention, formulated in the form of wettable powders (WP) or as emulsion concentrates (EC), were applied onto the green parts of the plants as aqueous suspension or emulsion with addition of 0.5% additive at a water application rate of 600 liters per hectare (converted). After the test plants had been kept in the greenhouse under optimum growth conditions for about 3 weeks, the activity of the preparations was rated visually in comparison to untreated controls. For example, 100% activity=the plants have died, 0% activity=like untreated control plants. Tables B1-B8 below show the effects of selected compounds of the general formula (I) according to Table 1 above on various harmful plants and an application rate corresponding to 1280 g/ha, which were obtained by the experimental procedure mentioned above.

Amaranthus retroflexus [3] = assay: Herbicidal pre-emergence action (greenhouse pots), AMARE; details: 1280 g/ha, visual scoring after about 3 weeks vs untreated controls
Procedure, shortened: (§3)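 Each sandy loam pot was doubly sown with weeds, then covered with soil and treated on the soil surface at 1280 g/ha. The spray liquid contained 0.5% additive at a water rate of 600 L/ha. Effects were rated visually as % relative to untreated plants after about 3 weeks under greenhouse conditions.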

Amaranthus retroflexus [4] = assay: Herbicidal post-emergence action (greenhouse pots), AMARE; details: 1280 g/ha, visual rating about 3 weeks after treatment vs untreated controls
Procedure, shortened: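 Foliar application to potted greenhouse weeds at the one-leaf stage used 1280 g/ha in 600 L/ha water with 0.5% additive (WP or EC). Plants then stayed under optimum conditions about 3 weeks before visual rating, where 100% meant death and 0% matched untreated.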

Agrostis tenuis = assay: Herbicidal early post-emergence action (96-well microtiter plates), AGSTE; details: 1900 g/ha, scored 9 to 12 days after treatment, 100% = plants have died, 0% = like untreated control plants
Procedure, shortened: (§4)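 Activity was scored by eye 9 to 12 days after treatment (100% = plants dead, 0% = like untreated controls). Spraying used emulsion concentrates at 1900 g/ha in 2200 L/ha water, applied to cotyledon-stage seedlings raised 5 to 7 days in quartz sand in 96-well plates under controlled conditions.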

Poa annua [5] = assay: Herbicidal early post-emergence action (96-well microtiter plates), POAAN; details: 1900 g/ha, scored 9 to 12 days after treatment, 100% = plants have died, 0% = like untreated control plants
Procedure, shortened: as §4

Setaria viridis [6] = assay: Herbicidal pre-emergence action (greenhouse pots), SETVI; details: 1280 g/ha, visual scoring after about 3 weeks vs untreated controls
Procedure, shortened: as §3

Poa annua [7] = assay: Herbicidal post-emergence action (greenhouse pots), POAAN; details: 1280 g/ha, visual rating about 3 weeks after treatment vs untreated controls
Text: as §2

Echinochloa crus-galli [8] = assay: Herbicidal pre-emergence action (greenhouse pots), ECHCG; details: 1280 g/ha, visual scoring after about 3 weeks vs untreated controls
Text: as §1

Stellaria media [9] = assay: Herbicidal pre-emergence action (greenhouse pots), STEME; details: 1280 g/ha, visual scoring after about 3 weeks vs untreated controls
Procedure, shortened: as §3

Poa annua [10] = assay: Herbicidal pre-emergence action (greenhouse pots), POAAN; details: 1280 g/ha, visual scoring after about 3 weeks vs untreated controls
Procedure, shortened: as §3

Lolium rigidum = assay: Herbicidal pre-emergence action (greenhouse pots), LOLRI; details: 1280 g/ha, visual scoring after about 3 weeks vs untreated controls
Text: as §1

Abutilon theophrasti [11] = assay: Herbicidal post-emergence action (greenhouse pots), ABUTH; details: 1280 g/ha, visual rating about 3 weeks after treatment vs untreated controls
Text: as §2

Matricaria inodora = assay: Herbicidal pre-emergence action (greenhouse pots), MATIN; details: 1280 g/ha, visual scoring after about 3 weeks vs untreated controls
Text: as §1

Echinochloa crus-galli [12] = assay: Herbicidal post-emergence action (greenhouse pots), ECHCG; details: 1280 g/ha, rated after about 3 weeks, 100% = plants have died, 0% = like untreated control plants
Text: as §2

Setaria viridis [13] = assay: Herbicidal post-emergence action (greenhouse pots), SETVI; details: 1280 g/ha, rated after about 3 weeks, 100% = plants have died, 0% = like untreated control plants
Text: as §2

Compound | herbicidal activity ABUTH (Abutilon theophrasti [1]) | herbicidal activity STEME (Stellaria media [2]) | herbicidal activity AMARE (Amaranthus retroflexus [3]) | herbicidal activity AMARE (Amaranthus retroflexus [4]) | AGSTE (herbicidal activity, scored visually in comparison to untreated controls) (Agrostis tenuis) | POAAN (herbicidal activity, scored visually in comparison to untreated controls) (Poa annua [5]) | herbicidal activity SETVI (Setaria viridis [6]) | herbicidal activity POAAN (Poa annua [7]) | herbicidal activity ECHCG (Echinochloa crus-galli [8]) | herbicidal activity STEME (Stellaria media [9]) | herbicidal activity POAAN (Poa annua [10]) | herbicidal activity LOLRI (Lolium rigidum) | herbicidal activity ABUTH (Abutilon theophrasti [11]) | herbicidal activity MATIN (Matricaria inodora) | ECHCG (herbicidal activity, rated visually in comparison to untreated controls) (Echinochloa crus-galli [12]) | SETVI (herbicidal activity, rated visually in comparison to untreated controls) (Setaria viridis [13])
N#Cc1cccc(Nc2ncc(Cl)cn2)c1Oc1ccc(Cl)cc1F [Example 1-294] | 90% | 100% | 100% | 100% | 80% | 100% | 100% | 100% | 90% | 100% | 100% |  |  |  |  | 
N#Cc1cccc(Nc2ncc(Cl)cn2)c1Oc1ccc(F)c(F)c1 [Example 1-291] |  | 100% | 100% | 100% | 100% | 100% | 100% | 100% | 90% | 100% | 100% | 100% | 100% | 100% | 100% | 100%
N#Cc1cccc(Nc2ncc(F)cn2)c1Oc1cccc(Cl)c1 [Example 1-268] | 90% |  | 90% | 90% | 100% | 80% |  |  |  |  |  |  |  |  |  | 
N#Cc1ccc(Oc2c(C#N)cccc2Nc2ncc(F)cn2)cc1 [Example 1-280] | 100% | 100% | 100% | 100% | 100% | 100% | 100% |  | 100% | 100% | 100% |  |  | 100% |  | 
N#Cc1ccc(Oc2c(C#N)cccc2Nc2ncc(Cl)cn2)cc1 [Example 1-299] |  | 100% | 100% | 100% | 80% | 100% | 100% |  |  | 100% | 100% | 90% |  |  |  | 90%
N#Cc1cccc(Nc2ncc(F)cn2)c1Oc1cccc(C(F)(F)F)c1 [Example 1-278] |  | 100% | 100% | 100% | 100% | 100% | 100% |  |  | 100% | 100% | 100% | 90% | 100% | 90% | 
N#Cc1cccc(Nc2ncc(Cl)cn2)c1Oc1ccc(Cl)nc1 [Example 3-56] | 100% | 100% | 100% | 100% | 100% | 100% | 100% | 100% | 100% | 100% | 100% |  | 100% | 100% | 100% | 100%
N#Cc1ccc(Oc2c(C#N)cccc2Nc2ncccn2)cc1 [Example 1-261] | 100% |  | 100% | 100% | 80% | 80% | 100% |  | 100% | 100% | 100% |  |  | 100% |  | 
N#Cc1cccc(Nc2ncccn2)c1Oc1ccc(F)c(F)c1 [Example 1-253] |  | 100% | 100% | 100% | 100% | 100% | 100% |  | 100% | 100% | 100% | 100% | 100% | 100% | 100% | 90%
N#Cc1cccc(Nc2ncc(F)cn2)c1Oc1ccc(C(F)(F)F)cc1 [Example 1-279] |  | 100% | 100% | 100% | 80% | 100% | 100% | 100% |  | 100% | 100% | 90% |  | 90% |  | 
Cc1cnc(Nc2cccc(C#N)c2Oc2ccc(F)cc2)nc1 [Example 1-308] | 100% | 100% | 100% | 100% | 100% | 100% | 100% | 100% | 90% | 100% | 100% |  | 100% | 100% | 100% | 100%

Source: patent publication US12415786B2, “Substituted 2-heteroarylaminobenzenes and the salts thereof and their use as herbicidal agents” (Bayer Aktiengesellschaft, priority 2019, dated 2025)
